Experimental data as given in patent publication US20250019387A1 (Frontier Medicines Corporation, priority 0001, published 2025).
Where two headings read alike, the source gives them in different places.

Assays:
[1] = target: KRAS G12C and cRAF (Ras-binding domain) interaction (Homo sapiens (Human), UniProt P01116, C118S/C51S/C80L/G12C); assay: Inhibition of KRAS G12C and cRAF binding (AlphaScreen)
In short: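 IC50 values come from 4-parameter nonlinear regression of AlphaScreen signal (680 nm excitation, 570 nm emission). Compound plates sat 19-20 h at room temperature before RBD and donor/acceptor beads were added in Hepes pH 7.4 buffer with 150 mM NaCl, 5 mM MgCl2, 2% DMSO for 60-90 min; biotin-AviTag-GST replaced RBD to flag assay-technology interferers.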

[2] = target: KRAS G12C and PI3Ka (Ras-binding domain) interaction (Homo sapiens (Human), UniProt P01116, C118S/C51S/C80L/G12C); assay: Inhibition of KRAS G12C and PI3Ka binding (AlphaScreen); conditions: GMPPNP-loaded KRAS G12C, 2 hours incubation with compound; read-out: PI3Ka RBD IC50
Protocol: Compounds were diluted in 100% DMSO and each compound concentration was spotted at 200 nl/well onto low volume, white 384 well plates. […] The KRAS GT2C was diluted in 25 mM Hepes, pH 7.4, 150 mM NaCl, 5 mMv MgCl2, 0.0100 TritonX-100 and 10 μM GMPPNP and added at 10 ul/well to compound-spotted plates resulting in a […] concentration of 2%. Plates were incubated for 2 hours. A mixture of RBD and the AlphaScreen streptavidin donor and nickel chelate acceptor beads diluted in 25 mMv Hepes, pH 7.4, 150 mMv NaCl, 5 mM MgCl2, 0.0100 TritonX-100 and 2% DMSO was then added at 10 ul/well and incubated for 60-90 minutes before the samples were read for emission at 570 nm after excitation of the donor beads at 680 nm. All incubations were performed at room temperature. […] Final assay conditions were 1.5 nM KRAS GT2C, 100 nM RBD, 1.25 ug/ml of AlphaScreen donor beads and 10 μg/ml AlphaLISA acceptor beads. IC50S were determined using nonlinear regression fit of [inhibitor]vs. response (4 parameters). […]

[3] = GMPPNP-loaded KRAS G12C, 19-20 hours incubation with compound, read-out: IC50 (Inhibition of KRAS G12C and cRAF Binding)
[4] = additional exemplary compounds, KRAS G12C and cRAF binding, read-out: RAF1 RBD IC50

Chain of KRAS G12C and cRAF (Ras-binding domain) interaction (P01116 other isoform, or with tags, fused parts or gaps G12C/C51S/C80L/C118S): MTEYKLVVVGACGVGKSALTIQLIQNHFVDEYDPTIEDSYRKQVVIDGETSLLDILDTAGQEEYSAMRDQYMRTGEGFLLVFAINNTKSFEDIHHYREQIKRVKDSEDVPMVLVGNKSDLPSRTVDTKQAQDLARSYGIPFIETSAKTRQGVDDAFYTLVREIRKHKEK
Chain of KRAS G12C and PI3Ka (Ras-binding domain) interaction (P01116 other isoform, or with tags, fused parts or gaps G12C/C51S/C80L/C118S): as above

IC50 [1, 3]	IC50 [2]	IC50 [1, 4]	Compound
10 to 100 nM	10 to 100 nM		CCc1noc(/C=C/C(=O)N2CC(CN(C)c3nc(OCC45CCCN4CCC5)nc4c3CCN(c3cccc5cccc(Cl)c35)C4)C2)n1 [Example 168, (E)-1-(3-(((7-(8-chloronaphthalen-1-yl)-2-((hexahydro-1H-pyrrolizin-7a-yl)methoxy)-5,6,7,8-tetrahydropyrido[3,4-d]pyrimidin-4-yl)(methyl)amino)methyl)azetidin-1-yl)-3-(3-ethyl-1,2,4-oxadiazol-5-yl)prop-2-en-1-one]
10 to 100 nM	10 to 100 nM		CN(CC1CN(C(=O)/C=C/c2nc(C3CC3)no2)C1)c1nc(OCC23CCCN2CCC3)nc2c(F)c(-c3cccc4cccc(Cl)c34)ncc12 [Example 173, (E)-1-(3-(((7-(8-chloronaphthalen-1-yl)-8-fluoro-2-((tetrahydro-1H-pyrrolizin-7a(5H)-yl)methoxy)pyrido[4,3-d]pyrimidin-4-yl)(methyl)amino)methyl)azetidin-1-yl)-3-(3-cyclopropyl-1,2,4-oxadiazol-5-yl)prop-2-en-1-one]
10 to 100 nM	10 to 100 nM		CN(CC1CN(C(=O)/C=C/c2nc([C@H]3C[C@@H]3F)no2)C1)c1nc(OC[C@@]23CCCN2C[C@H](F)C3)nc2c(F)c(-c3cccc4cccc(Cl)c34)ncc12 [Example 139, (E)-1-(3-(((7-(8-chloronaphthalen-1-yl)-8-fluoro-2-(((2R,7aS)-2-fluorotetrahydro-1H-pyrrolizin-7a(5H)-yl)methoxy)pyrido[4,3-d]pyrimidin-4-yl)(methyl)amino)methyl)azetidin-1-yl)-3-(3-((1R,2S)-2-fluorocyclopropyl)-1,2,4-oxadiazol-5-yl)prop-2-en-1-one]
10 to 100 nM	10 to 100 nM		CN(c1nc(OC[C@@]23CCCN2C[C@H](F)C3)nc2c(F)c(-c3cccc4cccc(Cl)c34)ncc12)[C@@H]1CCN(C(=O)/C=C/c2nc([C@H]3C[C@@H]3F)no2)C1 [Example 140, (E)-1-((R)-3-((7-(8-chloronaphthalen-1-yl)-8-fluoro-2-(((2R,7aS)-2-fluorohexahydro-1H-pyrrolizin-7a-yl)methoxy)pyrido[4,3-d]pyrimidin-4-yl)(methyl)amino)pyrrolidin-1-yl)-3-(3-((1R,2S)-2-fluorocyclopropyl)-1,2,4-oxadiazol-5-yl)prop-2-en-1-one]
10 to 100 nM	10 to 100 nM		CN1C[C@@H](O)C[C@@H]1C#CC(=O)N1CC[C@@H](N(C)c2nc(OC[C@@]34CCCN3C[C@H](F)C4)nc3c(F)c(-c4cccc5cccc(Cl)c45)ncc23)C1 [Example 248, 1-((R)-3-((7-(8-chloronaphthalen-1-yl)-8-fluoro-2-(((2R,7aS)-2-fluorohexahydro-1H-pyrrolizin-7a-yl)methoxy)pyrido[4,3-d]pyrimidin-4-yl)(methyl)amino)pyrrolidin-1-yl)-3-((2R,4S)-4-hydroxy-1-methylpyrrolidin-2-yl)prop-2-yn-1-one]
100 to 500 nM	10 to 100 nM		C=CC(=O)N1CC[C@@H](N(C)c2nc(OCC34CCCN3CCC4)nc3c(F)c(-c4cccc5cccc(F)c45)ncc23)C1 [Example 259, (R)-1-(3-((8-fluoro-7-(8-fluoronaphthalen-1-yl)-2-((tetrahydro-1H-pyrrolizin-7a(5H)-yl)methoxy)pyrido[4,3-d]pyrimidin-4-yl)(methyl)amino)pyrrolidin-1-yl)prop-2-en-1-one]
100 to 500 nM			Cc1nccc(/C=C/C(=O)N2CC[C@@H](N(C)c3nc(OC[C@@]45CCCN4C[C@H](F)C5)nc4c(F)c(-c5cccc6cccc(Cl)c56)ncc34)C2)n1 [Example 72, (E)-1-((R)-3-((7-(8-chloronaphthalen-1-yl)-8-fluoro-2-(((2R,7aS)-2-fluorotetrahydro-1H-pyrrolizin-7a(5H)-yl)methoxy)pyrido[4,3-d]pyrimidin-4-yl)(methyl)amino)pyrrolidin-1-yl)-3-(2-methylpyrimidin-4-yl)prop-2-en-1-one]
		100 to 500 nM	C=CC(=O)N1C[C@H](N(C)c2nc(OC[C@@]34CCCN3C[C@H](F)C4)nc3c2CCN(c2cccc4cccc(Cl)c24)C3)C[C@H]1CC#N
> 500 nM			C=CC(=O)N1CC[C@@H](N(C)c2nc(OC[C@@]34CCCN3C[C@H](F)C4)nc3c(F)c(-c4cccc5cc(Cl)cc(Cl)c45)ncc23)C1 [Example 263, 1-((R)-3-((7-(6,8-dichloronaphthalen-1-yl)-8-fluoro-2-(((2R,7aS)-2-fluorotetrahydro-1H-pyrrolizin-7a(5H)-yl)methoxy)pyrido[4,3-d]pyrimidin-4-yl)(methyl)amino)pyrrolidin-1-yl)prop-2-en-1-one]
< 10 nM			CN(c1nc(OC[C@@]23CCCN2C[C@H](F)C3)nc2c(F)c(-c3cccc4cccc(Cl)c34)ncc12)[C@@H]1CCN(C(=O)C#CC2CCCN2)C1 (stereo partly drawn) [Example 59, 1-((R)-3-((7-(8-chloronaphthalen-1-yl)-8-fluoro-2-(((2R,7aS)-2-fluorotetrahydro-1H-pyrrolizin-7a(5H)-yl)methoxy)pyrido[4,3-d]pyrimidin-4-yl)(methyl)amino)pyrrolidin-1-yl)-3-(pyrrolidin-2-yl)prop-2-yn-1-one]
10 to 100 nM			C#Cc1c(F)ccc2cccc(-c3ncc4c(N(C)[C@@H]5CCN(C(=O)/C=C/CN6CC[C@H](F)C6)C5)nc(OC[C@@]56CCCN5C[C@H](F)C6)nc4c3F)c12 [Example 288, (E)-1-((R)-3-((7-(8-ethynyl-7-fluoronaphthalen-1-yl)-8-fluoro-2-(((2R,7aS)-2-fluorotetrahydro-1H-pyrrolizin-7a(5H)-yl)methoxy)pyrido[4,3-d]pyrimidin-4-yl)(methyl)amino)pyrrolidin-1-yl)-4-((S)-3-fluoropyrrolidin-1-yl)but-2-en-1-one]
< 10 nM			CN(c1nc(OC[C@@]23CCCN2C[C@H](F)C3)nc2c(F)c(-c3cccc4ccc(F)c(Cl)c34)ncc12)[C@@H]1CCN(C(=O)/C=C/c2nc(C(C)(C)O)no2)C1 [Example 88, (E)-1-((R)-3-((7-(8-chloro-7-fluoronaphthalen-1-yl)-8-fluoro-2-(((2R,7aS)-2-fluorotetrahydro-1H-pyrrolizin-7a(5H)-yl)methoxy)pyrido[4,3-d]pyrimidin-4-yl)(methyl)amino)pyrrolidin-1-yl)-3-(3-(2-hydroxypropan-2-yl)-1,2,4-oxadiazol-5-yl)prop-2-en-1-one]
10 to 100 nM			CN(CC1CN(C(=O)/C=C/[C@@H]2CCN2C)C1)c1nc(OC[C@@]23CCCN2C[C@H](F)C3)nc2c(F)c(-c3cccc4cccc(Cl)c34)ncc12 [Example 218, (E)-1-(3-(((7-(8-chloronaphthalen-1-yl)-8-fluoro-2-(((2R,7aS)-2-fluorotetrahydro-1H-pyrrolizin-7a(5H)-yl)methoxy)pyrido[4,3-d]pyrimidin-4-yl)(methyl)amino)methyl)azetidin-1-yl)-3-((S)-1-methylazetidin-2-yl)prop-2-en-1-one]
		100 to 500 nM	CN(CCC1CN(C#N)C1)c1nc(OCC23CCCN2CCC3)nc2c1CCN(c1cccc3cccc(Cl)c13)C2
10 to 100 nM			CN(c1nc(OC[C@@]23CCCN2C[C@H](F)C3)nc2c(F)c(-c3cccc4ccc(F)c(Cl)c34)ncc12)[C@@H]1CCN(C(=O)C#CCN2CC(F)(F)C2)C1 [Example 209, 1-((R)-3-((7-(8-chloro-7-fluoronaphthalen-1-yl)-8-fluoro-2-(((2R,7aS)-2-fluorohexahydro-1H-pyrrolizin-7a-yl)methoxy)pyrido[4,3-d]pyrimidin-4-yl)(methyl)amino)pyrrolidin-1-yl)-4-(3,3-difluoroazetidin-1-yl)but-2-yn-1-one]
		> 500 nM	CC(C)c1noc(/C=C/C(=O)N2CCN(c3nc(OC[C@@]45CCCN4C[C@H](F)C5)nc4c3CCN(c3cccc5cccc(Cl)c35)C4)CC2)n1
		> 500 nM	C=CC(=O)[C@@H]1CC[C@H]1Nc1nc(OC[C@@H]2CCCN2C)nc2c1CCN(c1cccc3ccccc13)C2
		< 10 nM	CN(C)C/C=C/S(=O)(=O)CCN(C)c1nc(OC[C@@]23CCCN2C[C@H](F)C3)nc2c1CCN(c1cccc3cccc(Cl)c13)C2
> 500 nM			CN(CC1CCN(C#N)C1)c1nc(OC[C@@H]2CCCN2C)nc2c1CCN(c1cccc3cccc(Cl)c13)C2 (stereo partly drawn) [Example 31, 3-(((7-(8-chloronaphthalen-1-yl)-2-(((S)-1-methylpyrrolidin-2-yl)methoxy)-5,6,7,8-tetrahydropyrido[3,4-d]pyrimidin-4-yl)(methyl)amino)methyl)pyrrolidine-1-carbonitrile]

Compound	IC50 [1, 3]	IC50 [2]	IC50 [1, 4]
O=C(/C=C/CN1CCOCC1)N1C2CC1CN(c1nc(OC[C@@]34CCCN3C[C@H](F)C4)nc3c(F)c(-c4cccc5cccc(Cl)c45)ncc13)C2			> 500 nM
